The results in this text go back to US20230203081A1, “LINCOSAMIDE ANTIBIOTICS AND USES THEREOF” (President and Fellows of Harvard College, priority 2020, published 2023).

Read-outs that look alike come from different tables or passages of the source.

For one series, the system named is E. faecalis VRE. As to the kind of experiment: MIC (CLSI), first E. faecalis VRE line of Table 4. The format is cell-based. As to conditions: Enterococcus faecalis, VRE. As for the experimental part: Minimum inhibitory concentrations (MICs) were determined by broth microdilution method or agar dilution method following the Clinical and Laboratory Standards Institute guidelines. Standard bacterial strains were obtained from American Type Culture Collection (ATCC). Other bacterial strains were obtained from hospitals and commercial sources, so noted in Table 11. Before the start of the MIC experiment, standard and test compound stock solutions were prepared in dimethyl sulfoxide (DMSO, Aldrich D2650) at a stock concentration of 5,120 μg/mL. The compound concentration range typically employed for each experiment was 128-0.06 μg/mL (2.5% final DMSO concentration). Clindamycin was used as a comparator in all experiments and each experiment was performed in triplicate. Specialized procedures were employed for streptococcal and anaerobic strains. All other bacterial strains were sub-cultured on blood agar plates (tryptic soy agar with 5% sheep blood, Hardy Diagnostics) and incubated overnight at 35° C. Organisms were suspended in cation-adjusted Mueller-Hinton broth (CaMHB, BD 212322) and optical density was adjusted to 0.5 McFarland standard. Suspensions were further diluted to obtain a final inoculum of 5×10^5 CFU/mL for broth microdilution experiments.

Series [1] can be described thus: Plasma protein binding, species m. The format is in vitro ADME. The following applies: mouse.
The next series concerns ribosome. As to the kind of experiment: Toeprinting analysis (primer extension inhibition) in cell-free translation, ermBL and ermDL templates. The following applies: 50 μM. The format is biochemical. How it is done: Toeprinting analysis: The ermBL DNA template for toeprinting was generated by a 4-primer cross-over PCR using primers T7, NV1, ermB3-F and ermB3-R. The ermDL template was generated in the same way using primers RLR-fwd, RLR-rev, T7-SD-fwd and T7-SD-rev. In vitro translation in the PURExpress system (New England Biolabs) and toeprinting analysis were carried out as described previously. […]
Primer sequences used for toeprinting are as follows: T7 (TAATACGACTCACTATAGGG); NV1 (GGTTATAATGAATTTTGCTTATTAAC); ermB3-F (TAATACGACTCACTATAGGGCTTAAGTATAAGGAGGAAAAAATATGTTGGTATTCCAAATGCGTAATGTAGATAAAACATCTAC); ermB3-R (GGTTATAATGAATTTTGCTTATTAACGATAGAATTCTATCACTTATTTCAAAATAGTAGATGTTTTATCTACATTACG); RLR-fwd (GGAGGAAAAAATATGACACACTCAATGAGACTTCGTATTTTCCC); RLR-rev (CTATCACTTACAAAGTTGGGAAAATACGAAGTCTCATTGAG); T7-SD-fwd (TAATACGACTCACTATAGGGCTTAAGTATAAGGAGGAAAAAATATGACACACTCAATG); T7-SD-rev (GGTTATAATGAATTTTGCTTATTAACGATAGAATTCTATCACTTACAAAGTTGGGAAAAT).

Series [2] deals with susceptible S. aureus and E. faecium strains. Kind of series: Time-kill studies. The class given is cell-based. How it is done: . Experiments were performed in duplicate following CLSI guidelines. An inoculum was prepared in Mueller-Hinton broth (MHB) containing 0.5-5×10^6 CFU/mL of test organism. Cultures were incubated at 37° C. in a shaker incubator at 110 rpm; a flask containing bacteria left unexposed to antibiotic was used as untreated control. At time points 0, 1, 3, 6, and 24 h following administration of antibiotic, bacterial counts were determined from each flask by serial dilution and plating on brain heart infusion agar (BD, Sparks, M D). Plates were incubated at 37° C. in incubators for 18-24 hours to determine bacterial counts. For streptococcal strains, blood agar plates (Tryptic Soy Agar with 5% Sheep Blood) were used for culturing the organisms (plates were incubated in the presence of 5% CO2), and time-kill studies were performed in media supplemented with 5% laked horse blood.

The next series has as its system S. pyogenes ATCC 19615. The class given is in vivo. As for the experimental part:
The optical density of the bacterial suspension was adjusted to 0.1 at 600 nm using sterile BHIB and was then further diluted 1:1 in 10% hog gastric mucin (HGM, type III) to prepare the infecting inoculum in 5% HGM. Mice were infected by intraperitoneal injection of 250 μL, infecting inoculum, representing 1-2×10^6 CFU per animal. […] Animals were monitored for survival for seven days following infection.

The subject of the next series is E. coli strain SQ110DTC. Kind of series: Selection of FSA-513018b resistant mutants in SQ110DTC. The following applies: SQ110DTC plated on agar containing FSA-513018b. The format is cell-based. How it is done: […]. […] Approximately 20 colonies appeared on both plates after incubation at 37° C. for 24 h. The segment of the 23S rRNA gene corresponding to domains V and VI of the 23S rRNA was PCR-amplified from 14 randomly selected colonies using the primers 2020R (CCCGAGACTCAGTGAAATTGAACTC) and L2904 (AAG GTT AAG CCT CAC GG). PCR products were sequenced using the primer L2667 (GGTCCTCTCGTACTAGGAGCAG).

For the next series, the system named is E. coli HAV504. As to the kind of experiment: Murine neutropenic thigh infection model. The format is in vivo, mice. As to conditions: neutropenic mouse thigh, E. coli HAV504 (FIG. 4C).
For series [3] the following is noted: mouse, microsomes.

The term MIC denotes the lowest concentration that inhibits growth of the organism. Higher therefore signals a need for much substance. `CCC[C@@H]1C[C@@H](C(=O)N[C@@H]([C@H]2O[C@H](SC)[C@H](O)[C@@H](O)[C@H]2O)[C@H](C)Cl)N(C)C1` [Clindamycin, clindamycin, reference compound] returned an MIC against E. faecalis VRE of more than 128 µg/mL.
What is called fraction unbound is the share of the substance not bound to proteins or other matrix. As to `CSC1O[C@H]([C@H](NC(=O)[C@H]2NC[C@@H]3C[C@H](CC(C)C)CCO[C@H]32)[C@H](C)Cl)C(O)[C@@H](O)[C@H]1O` (stereo partly shown) [FSA-513018b], the fraction unbound in series [1] was 0.05. The “translation arrest at the start codons of model ORFs (toeprinting)” value in the series with ribosome is listed as “firmly locked the ribosome at the start codons, allowing virtually no escape”. Further, in series [2] (certain highly susceptible strains), the cidality in time-kill result was “concentration-dependent cidality”. For the same molecule, in series [2] (result in words), the “mode of action in broth culture profiling (time-kill)” value was “bacteriostatic”. Besides, the Mice surviving came to 8 in the series with S. pyogenes ATCC 19615 (1 mg/kg i.v., Day 1, n=8, clindamycin given as clindamycin phosphate); 7 in the series on S. pyogenes ATCC 19615 (1 mg/kg i.v., Day 2, n=8); 7 in the series with S. pyogenes ATCC 19615 (1 mg/kg i.v., Day 3, n=8); 7 in the series on S. pyogenes ATCC 19615 (1 mg/kg i.v., Day 4, n=8); 7 in the series on S. pyogenes ATCC 19615 (1 mg/kg i.v., Day 5, n=8); 7 in the series with S. pyogenes ATCC 19615 (1 mg/kg i.v., Day 6, n=8). Further, the Mice surviving with S. pyogenes ATCC 19615 (1 mg/kg i.v., Day 7, n=8) stood at 7; with S. pyogenes ATCC 19615 (3 mg/kg i.v., Day 1, n=8), 8; in the series on S. pyogenes ATCC 19615 (3 mg/kg i.v., Day 2, n=8), 8; with S. pyogenes ATCC 19615 (3 mg/kg i.v., Day 3, n=8), 8; with S. pyogenes ATCC 19615 (3 mg/kg i.v., Day 4, n=8) it was 8; in the series with S. pyogenes ATCC 19615 (3 mg/kg i.v., Day 5, n=8) it was 8. Besides, the Mice surviving with S. pyogenes ATCC 19615 (3 mg/kg i.v., Day 6, n=8) is 8; with S. pyogenes ATCC 19615 (3 mg/kg i.v., Day 7, n=8), 8; with S. pyogenes ATCC 19615 (10 mg/kg i.v., Day 1, n=8), 8; in the series on S. pyogenes ATCC 19615 (10 mg/kg i.v., Day 2, n=8), 8; in the series with S. pyogenes ATCC 19615 (10 mg/kg i.v., Day 3, n=8) it was 8; in the series with S. pyogenes ATCC 19615 (10 mg/kg i.v., Day 4, n=8), 8. In addition, the Mice surviving with S. pyogenes ATCC 19615 (10 mg/kg i.v., Day 5, n=8) came to 8; with S. pyogenes ATCC 19615 (10 mg/kg i.v., Day 6, n=8), 8; in the series with S. pyogenes ATCC 19615 (10 mg/kg i.v., Day 7, n=8), 8. Also, the “rescue of infected animals” value in the series on S. pyogenes ATCC 19615 (S. pyogenes systemic infection, i.v. twice daily for two days) was “complete rescue”. In addition, the tolerability result with S. pyogenes ATCC 19615 (infected mice, 1, 3 or 10 mg/kg i.v. twice daily for two days, all dose levels) is given as “well-tolerated”. The “frequency of resistant clones” value with E. coli strain SQ110DTC was ~10^−8. Besides, in the series with E. coli HAV504, the “efficacy in thigh infection model” value was “effective”. The “Clint,mic” value in series [3] is given as 21.
